From patent US20190364899A1, “MICROBIOCIDAL OXADIAZOLE DERIVATIVES” (SYNGENTA PARTICIPATIONS AG, priority 2015, published 2019) come the findings set out here.

Like-named read-outs stand apart in the source and are kept apart here. Bounds are passed on as bounds.

Assay [1] concerns Puccinia recondita f, Sp. Tritici. The assay is described as follows: Fungicidal activity against Puccinia recondita f. sp. tritici / wheat / leaf disc preventative (brown rust). It counts as in vivo. The conditions noted are these: foliar, 200 ppm in the applied formulation, wheat leaf segments cv. Kanzler, inoculated 1 day after application, compared to untreated, read-out: disease control. The procedure: (§1) General examples of leaf disk tests in well plates: Leaf disks or leaf segments of various plant species are cut from plants grown in a greenhouse. The cut leaf disks or segments are placed in multiwell plates (24-well format) onto water agar. The leaf disks are sprayed with a test solution before (preventative) or after (curative) inoculation. Compounds to be tested are prepared as DMSO solutions (max. 10 mg/ml) which are diluted to the appropriate concentration with 0.025% Tween20 just before spraying. The inoculated leaf disks or segments are incubated under defined conditions (temperature, relative humidity, light, etc.) according to the respective test system. A single evaluation of disease level is carried out 3 to 14 days after inoculation, depending on the pathosystem. Percent disease control relative to the untreated check leaf disks or segments is then calculated. General examples of liquid culture tests in well plates: Mycelia fragments or conidia suspensions of a fungus prepared either freshly from liquid cultures of the fungus or from cryogenic storage, are directly mixed into nutrient broth. DMSO solutions of the test compound (max. 10 mg/ml) are diluted with 0.025% Tween20 by a factor of 50 and 10 μl of this solution is pipetted into a microtiter plate (96-well format). The nutrient broth containing the fungal spores/mycelia fragments is then added to give an end concentration of the tested compound. The test plates are incubated in the dark at 24° C. and 96% relative humidity. The inhibition of fungal growth is determined photometrically after 2 to 7 days, depending on the pathosystem, and percent antifungal activity relative to the untreated check is calculated.
Example 1: Fungicidal Activity Against Puccinia recondita f, Sp. Tritici/Wheat/Leaf Disc Preventative (Brown Rust)
Wheat leaf segments cv. Kanzler were placed on agar in multiwell plates (24-well format) and sprayed with the formulated test compound diluted in water. The leaf disks were inoculated with a spore suspension of the fungus 1 day after application. The inoculated leaf segments were incubated at 19° C. and 75% relative humidity (rh) under a light regime of 12 hours light/12 hours darkness in a climate cabinet and the activity of a compound was assessed as percent disease control compared to untreated when an appropriate level of disease damage appears in untreated check leaf segments (7 to 9 days after application).
(§2) The following compounds at 200 ppm in the applied formulation give at least 80% disease control in this test when compared to untreated control leaf disks under the same conditions, which show extensive disease development.

In assay [2] the test system is Glomerella Lagenarium (Colletotrichum Lagenarium). Description: Fungicidal activity against Glomerella lagenarium (Colletotrichum lagenarium) liquid culture / cucumber / preventative (anthracnose). It counts as cell-based. The conditions noted are these: Colletotrichum orbiculare, read-out: disease control. The procedure:
as §1
Example 4: Fungicidal Activity Against Glomerella Lagenarium (Colletotrichum Lagenarium) Liquid Culture/Cucumber/Preventative (Anthracnose)
Conidia of the fungus from cryogenic storage are directly mixed into nutrient broth (PDB—potato dextrose broth). After placing a (DMSO) solution of test compound into a microtiter plate (96-well format), the nutrient broth containing the fungal spores is added. The test plates are incubated at 24° C. and the inhibition of growth is measured photometrically 3 to 4 days after application.
The following compounds at 20 ppm in the applied formulation give at least 80% disease control in this test when compared to untreated control under the same conditions, which show extensive disease development.

For assay [3], the system named is Puccinia Recondite f. Sp. Tritici. The assay is described as follows: Fungicidal activity against Puccinia recondita f. sp. tritici / wheat / leaf disc curative (brown rust). It counts as in vivo. The conditions noted are these: foliar, 24 h, 200 ppm in the applied formulation, wheat leaf segments cv. Kanzler, applied 1 day after inoculation, compared to untreated, read-out: disease control. How it is done:
as §1
Example 2: Fungicidal Activity Against Puccinia Recondite f. Sp. Tritici Wheat/Leaf Disc Curative (Brown Rust)
Wheat leaf segments cv. Kanzler are placed on agar in multiwell plates (24-well format). The leaf segments are then inoculated with a spore suspension of the fungus. Plates were stored in darkness at 19° C. and 75% relative humidity. The formulated test compound diluted in water was applied 1 day after inoculation. The leaf segments were incubated at 19° C. and 75% relative humidity under a light regime of 12 hours light/12 hours darkness in a climate cabinet and the activity of a compound was assessed as percent disease control compared to untreated when an appropriate level of disease damage appears in untreated check leaf segments (6 to 8 days after application).
as §2

In assay [4] the test system is Phakopsora pachyrhizi. The assay is described as follows: Fungicidal activity against Phakopsora pachyrhizi / soybean / leaf disc preventative (Asian soybean rust). It counts as in vivo. The conditions noted are these: foliar, 200 ppm in the applied formulation, soybean leaf disks, inoculated one day after application, compared to untreated, read-out: disease control. The procedure: as §1
Example 3: Fungicidal Activity Against Phakopsora pachyrhizi/Soybean/Leaf Disc Preventative (Asian Soybean Rust)
Soybean leaf disks are placed on water agar in multiwell plates (24-well format) and sprayed with the formulated test compound diluted in water. One day after application leaf discs are inoculated by spraying a spore suspension on the lower leaf surface. After an incubation period in a climate cabinet of 24-36 hours in darkness at 20° C. and 75% rh leaf disc are kept at 20° C. with 12 h light/day and 75% rh. The activity of a compound is assessed as percent disease control compared to untreated when an appropriate level of disease damage appears in untreated check leaf disks (12 to 14 days after application).
as §2

Where [5] appears, read: 20 ppm in the applied formulation, liquid culture in PDB, growth inhibition measured photometrically 3 to 4 days after application, compared to untreated.

`O=C(NCc1ccc(-c2noc(C(F)(F)F)n2)cc1)OCc1ccccc1` [Compound 1.4, benzyl N-[[4-[5-(trifluoromethyl)-1,2,4-oxadiazol-3-yl]phenyl]methyl] carbamate]: the pest or weed control at 200 ppm in assay [1] was no less than 80%. Moreover, the inhibition of growth at 20 ppm in assay [2] (setting [5]) is no less than 80%.
Take `O=C(NCc1ccc(-c2noc(C(F)(F)F)n2)cn1)Oc1ccccc1` [Compound 1.5, phenyl N-[[5-[5-(trifluoromethyl)-1,2,4-oxadiazol-3-yl)-2-pyridyl]methyl] carbamate]: the inhibition of growth at 20 ppm in assay [2] is no less than 80%.
Regarding `O=C(NCc1ccc(-c2noc(C(F)(F)F)n2)cn1)OCc1ccccc1` [Compound 1.6, benzyl N-[[5-[5-(trifluoromethyl)-l,2,4-oxadiazol-3-yl]-2-pyridyl]methyl] carbamate], the pest or weed control at 200 ppm in assay [1] and in assay [3] was no less than 80% each time. Moreover, in assay [2] (setting [5]), the inhibition of growth at 20 ppm was no less than 80%.
With `O=C(NCc1ccc(-c2noc(C(F)(F)F)n2)cn1)Nc1ccccc1` [Compound 2.5, 1-phenyl-3-[[5-[5-(trifluoromethyl)-1,2,4-oxadiazol-3-yl]-2-pyridyl]methyl]urea], the pest or weed control at 200 ppm in assay [1] is no less than 80%. Also, the inhibition of growth at 20 ppm in assay [2] (setting [5]) is no less than 80%.
On to `O=C(NCc1ccc(-c2noc(C(F)(F)F)n2)cc1)NC1CCCCC1` [Compound 2.6, 1-cyclohexyl-3-[[4-[5-(trifluoromethyl)-1,2,4-oxadiazol-3-yl]phenyl]methyl]urea], for which the pest or weed control at 200 ppm in assay [4] was no less than 80%.
On to `O=C(NCc1ccc(-c2noc(C(F)(F)F)n2)cc1)Nc1ccccc1` [Compound 2.7, 1-phenyl-3-[[4-[5-(trifluoromethyl)-1,2,4-oxadiazol-3-yl]phenyl]methyl]urea], for which the pest or weed control at 200 ppm in assay [4] and in assay [1] was no less than 80% in each case. The inhibition of growth at 20 ppm in assay [2] (setting [5]) is no less than 80%.
`O=C(NCc1ccccc1)NCc1ccc(-c2noc(C(F)(F)F)n2)cc1` [Compound 2.8, 1-benzyl-3-[[4-[5-(trifluoromethyl)-1,2,4-oxadiazol-3-yl]phenyl]methyl]urea]: the pest or weed control at 200 ppm in assay [1] is no less than 80%. In assay [2] (setting [5]), the inhibition of growth at 20 ppm was no less than 80%.
Turning to `O=C(NCc1ccc(-c2noc(C(F)(F)F)n2)cc1)NC1CCC1` [Compound 2.9, 1-cyclobutyl-3-[[4-[5-(trifluoromethyl)-1,2,4-oxadiazol-3-yl]phenyl]methyl]urea], the pest or weed control at 200 ppm in assay [1] is no less than 80%. Also, the inhibition of growth at 20 ppm in assay [2] (setting [5]) was no less than 80%.
As to `O=C(NCc1ccc(-c2noc(C(F)(F)F)n2)cc1)NC1CCCC1` [Compound 2.10, 1-cyclopentyl-3-[[4-[5-(trifluoromethyl)-1,2,4-oxadiazol-3-yl]phenyl]methyl]urea], in assay [1], the pest or weed control at 200 ppm is no less than 80%. The inhibition of growth at 20 ppm in assay [2] (setting [5]) is no less than 80%.
For `O=C(NCc1ccc(-c2noc(C(F)(F)F)n2)cc1)NCc1ccco1` [Compound 2.11, 1-(2-furylmethyl)-3-[[4-[5-(trifluoromethyl)-l,2,4-oxadiazol-3-yl]phenyl]methyl]urea], the inhibition of growth at 20 ppm in assay [2] (setting [5]) was no less than 80%.
As to `O=C(NCc1ccccc1)NCc1ccc(-c2noc(C(F)(F)F)n2)cn1` [Compound 2.12, 1-benzyl-3-[[5-[5-(trifluoromethyl)-1,2,4-oxadiazol-3-yl]-2-pyridyl]methyl]urea], in assay [1], the pest or weed control at 200 ppm was no less than 80%. The inhibition of growth at 20 ppm in assay [2] (setting [5]) is no less than 80%.
As to `O=C(NCc1ccc(-c2noc(C(F)(F)F)n2)cn1)Nc1ccc(F)cc1` [Compound 2.13, 1-(4-fluorophenyl)-3-[[5-[5-(trifluoromethyl)-1,2,4-oxadiazol-3-yl]-2-pyridyl]methyl]urea], the pest or weed control at 200 ppm in assay [1] was no less than 80%.
For the compound `O=C(NCc1ccc(-c2noc(C(F)(F)F)n2)cn1)Nc1ccc(Cl)cc1` [Compound 2.15, 1-(4-chlorophenyl)-3-[[5-[5-(trifluoromethyl)-1,2,4-oxadiazol-3-yl]-2-pyridyl]methyl]urea], the pest or weed control at 200 ppm in assay [1] is no less than 80%. In assay [2] (setting [5]), the inhibition of growth at 20 ppm is no less than 80%.
As to `O=C(NCc1ccc(-c2noc(C(F)(F)F)n2)cn1)NCc1ccco1` [Compound 2.16], in assay [1], the pest or weed control at 200 ppm was no less than 80%. The inhibition of growth at 20 ppm in assay [2] (setting [5]) was no less than 80%.
Consider `O=C(NCc1ccc(-c2noc(C(F)(F)F)n2)cn1)Nc1cccc(F)c1` [Compound 2.17, 1-(3-fluorophenyl)-3-[[5-[5-(trifluoromethyl)-1,2,4-oxadiazol-3-yl]-2-pyridyl]methyl]urea], for which the pest or weed control at 200 ppm in assay [4], in assay [1] and in assay [3] was no less than 80% each time. The inhibition of growth at 20 ppm in assay [2] (setting [5]) was no less than 80%.
In the case of `O=C(NCc1ccc(-c2noc(C(F)(F)F)n2)cn1)Nc1ccccc1F` [Compound 2.18, 1-(2-fluorophenyl)-3-[[5-[5-(trifluoromethyl)-1,2,4-oxadiazol-3-yl]-2-pyridyl]methyl]urea], the pest or weed control at 200 ppm in assay [1] is no less than 80%. Besides, in assay [2] (setting [5]), the inhibition of growth at 20 ppm was no less than 80%.
Take `O=C(NCc1ccc(-c2noc(C(F)(F)F)n2)cn1)Nc1ccccc1Cl` [Compound 2.19, 1-(2-chlorophenyl)-3-[[5-[5-(trifluoromethyl)-1,2,4-oxadiazol-3-yl]-2-pyridyl]methyl]urea]: the pest or weed control at 200 ppm in assay [4] and in assay [1] was no less than 80% throughout. In assay [2] (setting [5]), the inhibition of growth at 20 ppm was no less than 80%.
Take `O=C(NCc1ccc(-c2noc(C(F)(F)F)n2)cc1)NC1COC1` [Compound 2.23, 1-(oxetan-3-yl)-3-[[4-[5-(trifluoromethyl)-1,2,4-oxadiazol-3-yl]phenyl]methyl]urea]: the pest or weed control at 200 ppm in assay [4] and in assay [1] was no less than 80% in each case.
As for `N#CC1(NC(=O)NCc2ccc(-c3noc(C(F)(F)F)n3)cc2)CC1` [Compound 2.24, 1-(1-cyanocyclopropyl)-3-[[4-[5-(trifluoromethyl)-1,2,4-oxadiazol-3-yl]phenyl]methyl]urea], the pest or weed control at 200 ppm in assay [4], in assay [1] and in assay [3] was no less than 80% throughout.
On to `CC1(NC(=O)NCc2ccc(-c3noc(C(F)(F)F)n3)cc2)CC1` [Compound 2.25, 1-(1-methylcyclopropyl)-3-[[4-[5-(trifluoromethyl)-1,2,4-oxadiazol-3-yl]phenyl]methyl]urea], for which the pest or weed control at 200 ppm in assay [4] was no less than 80%.
Turning to `CCN(CC1CC1)C(=O)NCc1ccc(-c2noc(C(F)(F)F)n2)cc1` [Compound 2.29, 1-(cyclopropylmethyl)-l-ethyl-3-[[4-[5-(trifluoromethyl)-1,2,4-oxadiazol-3-yl]phenyl]methyl]urea], the pest or weed control at 200 ppm in assay [4] and in assay [1] was no less than 80% each time. Moreover, the inhibition of growth at 20 ppm in assay [2] (setting [5]) is no less than 80%.
